In patent publication US9670227B2, “Thienopyrimidine derivatives, a process for their preparation and pharmaceutical compositions containing them” (LES LABORATOIRES SERVIER, priority 2013, dated 2017):

The compounds below were run against Mcl-1 protein (UniProtKB primary accession number: Q07820) (Homo sapiens, UniProt Q07820) (assay: Inhibition of Mcl-1 by fluorescence polarisation, Method 1). Details: fluorescence polarisation; Method 1, or Method 2; read-out: IC50 (M) Mcl-1 FP.
Sequence of Mcl-1 protein (Q07820 whole entry): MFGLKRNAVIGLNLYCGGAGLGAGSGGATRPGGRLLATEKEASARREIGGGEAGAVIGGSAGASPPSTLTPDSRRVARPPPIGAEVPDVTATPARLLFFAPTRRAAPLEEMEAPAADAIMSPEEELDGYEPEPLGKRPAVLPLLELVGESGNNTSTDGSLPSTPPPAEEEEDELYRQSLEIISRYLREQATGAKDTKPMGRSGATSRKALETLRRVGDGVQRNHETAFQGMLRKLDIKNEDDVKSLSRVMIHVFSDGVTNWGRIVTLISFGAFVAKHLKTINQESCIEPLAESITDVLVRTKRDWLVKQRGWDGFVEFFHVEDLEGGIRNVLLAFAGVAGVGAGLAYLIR
Type: binding
How it was run: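 FP readout of relative binding potency. Mcl-1 5 nM final, fluorescein-labelled ligand 1 nM final; buffer 10 mM HEPES, 150 mM NaCl, 0.05% Tween 20, pH 7.4; 11-pt dilution series, 5% DMSO final.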
`CCc1sc2ncnc(OC(Cc3ccccc3)C(=O)O)c2c1-c1ccc(OCCCO)c(Cl)c1C` [Example 405, (2R)-2-({(5Sa)-5-[3-chloro-4-(3-hydroxypropoxy)-2-methylphenyl]-6-ethylthieno[2,3-d]pyrimidin-4-yl}oxy)-3-phenylpropanoic acid] gave an IC50 of 7.4e-09 M.
In the case of `CCc1sc2ncnc(OC(Cc3ccccc3)C(=O)O)c2c1-c1ccc(OCCN(C)C)cc1C` [Example 409, (2R)-2-[((5Sa)-5-{4-[2-(dimethylamino)ethoxy]-2-methylphenyl}-6-ethylthieno[2,3-d]pyrimidin-4-yl)oxy]-3-phenylpropanoic acid], the IC50 is reported as 2e-07 M.
With `CCc1sc2ncnc(OC(Cc3ccccc3)C(=O)O)c2c1-c1ccc(OCCN(C)C)cc1C` [Example 410, (2R)-2-[((5Ra)-5-{4-[2-(dimethylamino)ethoxy]-2-methylphenyl}-6-ethylthieno[2,3-d]pyrimidin-4-yl)oxy]-3-phenylpropanoic acid] the IC50 was 2.2e-06 M.
`CCc1sc2ncnc(OC(Cc3ccccc3)C(=O)O)c2c1-c1ccc(OCCN2CCN(C)CC2)cc1C` [Example 416, (2R)-2-[(6-ethyl-(5Ra)-5-{2-methyl-4-[2-(4-methylpiperazin-1-yl)ethoxy]phenyl}thieno[2,3-d]pyrimidin-4-yl)oxy]-3-phenylpropanoic acid] showed an IC50 of 7e-07 M.
`CCc1sc2ncnc(OC(Cc3ccccc3)C(=O)O)c2c1-c1ccc(OCCN2CCN(C)CC2)cc1C` [Example 417, (2R)-2-[(6-ethyl-(5Sa)-5-{2-methyl-4-[2-(4-methylpiperazin-1-yl)ethoxy]phenyl}thieno[2,3-d]pyrimidin-4-yl)oxy]-3-phenylpropanoic acid] was tested, and the IC50 was 1.5e-07 M.
In the case of `CCc1sc2ncnc(OC(Cc3ccccc3)C(=O)O)c2c1-c1ccc(OCCO)c(Cl)c1C` [Example 423, (2R)-2-({(5Sa)-5-[3-chloro-4-(2-hydroxyethoxy)-2-methylphenyl]-6-ethylthieno[2,3-d]pyrimidin-4-yl}oxy)-3-phenylpropanoic acid], the IC50 is reported as 5.3e-08 M.
With `CCc1sc2ncnc(OC(Cc3ccccc3)C(=O)O)c2c1-c1ccc(OCCOC)c(Cl)c1C` [Example 424, (2R)-2-({(5Sa)-5-[3-chloro-4-(2-methoxyethoxy)-2-methylphenyl]-6-ethylthieno[2,3-d]pyrimidin-4-yl}oxy)-3-phenylpropanoic acid] the IC50 was 9.6e-08 M.
Work on `CCc1sc2ncnc(OC(Cc3ccccc3)C(=O)O)c2c1-c1ccc(OCCOCCOC)c(Cl)c1C` [Example 425, (2R)-2-[((5Sa)-5-{3-chloro-4-[2-(2-methoxyethoxy)ethoxy]-2-methylphenyl}-6-ethylthieno[2,3-d]pyrimidin-4-yl)oxy]-3-phenylpropanoic acid] yielded an IC50 of 9.6e-09 M.
In the case of `CCc1sc2ncnc(OC(Cc3ccccc3)C(=O)O)c2c1-c1cc([N+](=O)[O-])c(O)c(Cl)c1C` [Example 426, (2R)-2-{[(5Sa)-5-(3-chloro-4-hydroxy-2-methyl-5-nitrophenyl)-6-ethylthieno[2,3-d]pyrimidin-4-yl]oxy}-3-phenylpropanoic acid], the IC50 is reported as 4.6e-09 M.
In the case of `CCc1sc2ncnc(OC(Cc3ccccc3)C(=O)O)c2c1-c1cc(Br)c(O)c(Cl)c1C` [Example 427, (2R)-2-{[(5Sa)-5-(5-bromo-3-chloro-4-hydroxy-2-methylphenyl)-6-ethylthieno[2,3-d]pyrimidin-4-yl]oxy}-3-phenylpropanoic acid], the IC50 is reported as 4.7e-09 M.
`CCc1sc2ncnc(OC(Cc3ccccc3)C(=O)O)c2c1-c1cc(Cl)c(O)c(Cl)c1C` [Example 428, (2R)-2-{[(5Sa)-5-(3,5-dichloro-4-hydroxy-2-methylphenyl)-6-ethylthieno[2,3-d]pyrimidin-4-yl]oxy}-3-phenylpropanoic acid] was tested, and the IC50 was 7.5e-09 M.
Work on `CCc1sc2ncnc(OC(Cc3ccccc3)C(=O)O)c2c1-c1cc(Cl)c(O)c(Cl)c1C` [Example 429, (2R)-2-{[(5Ra)-5-(3,5-dichloro-4-hydroxy-2-methylphenyl)-6-ethylthieno[2,3-d]pyrimidin-4-yl]oxy}-3-phenylpropanoic acid] yielded an IC50 of 5.3e-08 M.
`CCc1sc2ncnc(OC(Cc3ccccc3)C(=O)O)c2c1-c1cc(CN2CCN(C)CC2)c(O)c(Cl)c1C` [Example 430, (2R)-2-[((5Sa)-5-{3-chloro-4-hydroxy-2-methyl-5-[(4-methylpiperazin-1-yl)methyl]phenyl}-6-ethylthieno[2,3-d]pyrimidin-4-yl)oxy]-3-phenylpropanoic acid] gave an IC50 of 1.4e-07 M.
Compound `CCc1sc2ncnc(OC(Cc3ccccc3)C(=O)O)c2c1-c1cc(N)c(O)c(Cl)c1C` [Example 431, (2R)-2-{[(5Sa)-5-(5-amino-3-chloro-4-hydroxy-2-methylphenyl)-6-ethylthieno[2,3-d]pyrimidin-4-yl]oxy}-3-phenylpropanoic acid] has an IC50 of 3.2e-08 M.
`CCc1sc2ncnc(OC(Cc3ccccc3)C(=O)O)c2c1-c1cc(Cl)c(O)cc1C` [Example 438, (2R)-2-{[(5Sa)-5-(5-chloro-4-hydroxy-2-methylphenyl)-6-ethylthieno[2,3-d]pyrimidin-4-yl]oxy}-3-phenylpropanoic acid] showed an IC50 of 8.5e-08 M.
For `CCc1sc2ncnc(OC(Cc3ccccc3)C(=O)O)c2c1-c1cc(Cl)c(O)cc1C` [Example 439, (2R)-2-{[(5Ra)-5-(5-chloro-4-hydroxy-2-methylphenyl)-6-ethylthieno[2,3-d]pyrimidin-4-yl]oxy}-3-phenylpropanoic acid], the IC50 was 2.5e-07 M.
With `CCc1sc2ncnc(OC(Cc3ccccc3)C(=O)O)c2c1-c1cc(OCCN2CCN(C)CC2)ccc1C` [Example 440, (2R)-2-[(6-ethyl-(5Sa)-5-{2-methyl-5-[2-(4-methylpiperazin-1-yl)ethoxy]phenyl}thieno[2,3-d]pyrimidin-4-yl)oxy]-3-phenylpropanoic acid and (2S)-2-[(6-ethyl-(5Ra)-5-{2-methyl-5-[2-(4-methylpiperazin-1-yl)ethoxy]phenyl}thieno[2,3-d]pyrimidin-4-yl)oxy]-3-phenylpropanoic acid] the IC50 was 3e-07 M.
Work on `CCc1sc2ncnc(OC(Cc3ccccc3)C(=O)O)c2c1-c1cc2c(c(Cl)c1C)OCC(=O)N2` [Example 441, (2R)-2-{[(5Sa)-5-(8-chloro-7-methyl-3-oxo-3,4-dihydro-2H-1,4-benzoxazin-6-yl)-6-ethylthieno[2,3-d]pyrimidin-4-yl]oxy}-3-phenylpropanoic acid] yielded an IC50 of 2.7e-08 M.
Compound `CCc1sc2ncnc(O[C@H](Cc3ccccc3)C(=O)O)c2c1-c1cc2cc(CN(C)C)oc2c(Cl)c1C` [Example 442, (2R)-2-[((5Sa)-5-{7-chloro-2-[(dimethylamino)methyl]-6-methyl-1-benzofuran-5-yl}-6-ethylthieno[2,3-d]pyrimidin-4-yl)oxy]-3-phenylpropanoic acid] has an IC50 of 1.1e-07 M.
In the case of `CCc1sc2ncnc(OC(Cc3ccccc3)C(=O)O)c2c1-c1cc2ccoc2c(Cl)c1C` [Example 443, (2R)-2-{[(5Sa)-5-(7-chloro-6-methyl-1-benzofuran-5-yl)-6-ethylthieno[2,3-d]pyrimidin-4-yl]oxy}-3-phenylpropanoic acid], the IC50 is reported as 1.8e-08 M.
`CCc1sc2ncnc(OC(Cc3ccccc3)C(=O)O)c2c1-c1cc2nc(C)oc2c(Cl)c1C` [Example 444, (2R)-2-{[(5Sa)-5-(7-chloro-2,6-dimethyl-1,3-benzoxazol-5-yl)-6-ethylthieno[2,3-d]pyrimidin-4-yl]oxy}-3-phenylpropanoic acid] showed an IC50 of 1.2e-08 M.
Work on `CCc1sc2ncnc(OC(Cc3ccccc3)C(=O)O)c2c1-c1ccc(O)cc1C` [Example 447, (2R)-2-{[6-ethyl-(5Sa)-5-(4-hydroxy-2-methylphenyl)thieno[2,3-d]pyrimidin-4-yl]oxy}-3-phenylpropanoic acid] yielded an IC50 of 6.8e-08 M.
`CCc1sc2ncnc(OC(Cc3ccccc3)C(=O)O)c2c1-c1ccc(O)cc1C` [Example 448, (2R)-2-{[6-ethyl-(5Ra)-5-(4-hydroxy-2-methylphenyl)thieno[2,3-d]pyrimidin-4-yl]oxy}-3-phenylpropanoic acid] was tested, and the IC50 was 4.4e-07 M.
Work on `CCc1sc2ncnc(OC(Cc3ccccc3)C(=O)O)c2c1-c1cccc(Cl)c1C` [Example 450, (2R)-2-{[(5Sa)-5-(3-chloro-2-methylphenyl)-6-ethylthieno[2,3-d]pyrimidin-4-yl]oxy}-3-phenylpropanoic acid] yielded an IC50 of 2.6e-08 M.
With `CCc1sc2ncnc(OC(Cc3ccccc3)C(=O)O)c2c1-c1cccc(Cl)c1C` [Example 451, (2R)-2-{[(5Ra)-5-(3-chloro-2-methylphenyl)-6-ethylthieno[2,3-d]pyrimidin-4-yl]oxy}-3-phenylpropanoic acid] the IC50 was 5.8e-07 M.
Work on `CCc1sc2ncnc(OC(Cc3ccccc3)C(=O)O)c2c1-c1cccc(O)c1C` [Example 452, (2R)-2-{[6-ethyl-(5Sa)-5-(3-hydroxy-2-methylphenyl)thieno[2,3-d]pyrimidin-4-yl]oxy}-3-phenylpropanoic acid and (2S)-2-{[6-ethyl-(5Ra)-5-(3-hydroxy-2-methylphenyl)thieno[2,3-d]pyrimidin-4-yl]oxy}-3-phenylpropanoic acid] yielded an IC50 of 3e-07 M.
`CCc1sc2ncnc(OC(Cc3ccccc3OCC(F)(F)F)C(=O)O)c2c1-c1ccc(OCCN2CCN(C)CC2)c(Cl)c1C` [Example 454, (2R)-2-[((5Sa)-5-{3-chloro-2-methyl-4-[2-(4-methylpiperazin-1-yl)ethoxy]phenyl}-6-ethylthieno[2,3-d]pyrimidin-4-yl)oxy]-3-[2-(2,2,2-trifluoroethoxy)phenyl]propanoic acid] was tested, and the IC50 was 1.2e-08 M.
`CCc1sc2ncnc(OC(Cc3ccccc3OCCOC)C(=O)O)c2c1-c1ccc(OCCN2CCN(C)CC2)c(Cl)c1C` [Example 457, (2R)-2-[((5Sa)-5-{3-chloro-2-methyl-4-[2-(4-methylpiperazin-1-yl)ethoxy]phenyl}-6-ethylthieno[2,3-d]pyrimidin-4-yl)oxy]-3-[2-(2-methoxyethoxy)phenyl]propanoic acid] showed an IC50 of 3.4e-08 M.

Same assay, conditions: partial inhibitors; @ 10 uM test compound
`CCc1sc2ncnc(O[C@H](Cc3ccccc3)C(=O)O)c2c1-c1ccc(OCCN2CCOCC2)c(Cl)c1C` [Example 421, (2R)-2-[((5Ra)-5-{3-chloro-2-methyl-4-[2-(morpholin-4-yl)ethoxy]phenyl}-6-ethylthieno[2,3-d]pyrimidin-4-yl)oxy]-3-phenylpropanoic acid] was tested, and the “percentage fluorescence polarisation inhibition, Mcl-1 FP” value was 38.1% @ 10 uM.
